US20220073592A1, “SYNTHETIC AND RECOMBINANT COLLAGEN PEPTIDES HAVING BIOLOGICAL ACTIVITY” (GELITA AG, priority 2018, published 2022)
Where no end group is shown, it is not given here. [ ]: non-standard residue; d: D form. Hyp = O=C(O)[C@@H]1C[C@@H](O)CN1

Key:
Type in all cases: cell-based
[1] = tested on: human dermal fibroblasts; test: Sircol collagen assay, collagen synthesis by dermal fibroblasts; settings: 0.5 mg/ml peptide, three weeks stimulation
Procedure: (§1) The human cells used were obtained from tebu-bio GmbH, Offenbach, Germany. The chondrocytes (Cat. No. 402-05a) or dermal fibroblasts (Cat. No. 106-05a) were first sown in 12-well culture plates and cultured at 37° C., 5% CO2 in Ham's F12 medium, to which 10% fetal calf serum, 20 U/ml penicillin-streptomycin and 50 μg/ml ascorbic acid were added. On every other day, the culture medium was replaced by new culture medium until the cells had reached 80% confluence. […] To investigate the collagen metabolism, the amount of newly synthesized collagen was determined after stimulating the cells with 0.5 mg/ml BCP for three weeks. The synthesized collagen was isolated using the Sircol assay (Article No. 054S5000, 2019, tebu-bio, Offenbach, Germany, or Biocolor Ltd., UK) according to the manufacturer's instructions. In brief, the culture medium was initially discarded and the adherent cell layers were digested with 0.1 mg pepsin solution in 0.5 M acetic acid at 4° C. overnight. The cell suspensions were neutralized by adding 100 μl of an acid-neutralizing reagent. The synthesized collagen was then separated off by adding 200 μl of an isolation and concentration solution with vigorous shaking at 4° C. overnight. After centrifugation (12,000 rpm, 10 min) and discarding the supernatant, the isolated collagen was resuspended in 1 ml of Sircol dye solution. After 30 minutes of shaking and another centrifugation, the collagen pellet was covered with 750 μl of cold acidic solid washing reagent. After another centrifugation, the supernatant was again discarded and the enriched collagen was taken up in 250 μl of alkaline solution. In each case 200 μl of the sample solutions were used for photometric quantification of the synthesized collagen. The absorbance was measured at a wavelength of 492 nm. The amount of collagen synthesized in each case was determined on the basis of standardized collagen solutions.

[2] = tested on: human chondrocytes; test: Sircol collagen assay, collagen synthesis by chondrocytes; settings: 0.5 mg/ml peptide, three weeks stimulation
Procedure: as §1

[3] = tested on: human dermal fibroblasts; test: Blyscan glycosaminoglycan assay, proteoglycan synthesis by dermal fibroblasts; settings: 0.5 mg/ml, two weeks stimulation; for increase in collagen synthesis (in the proteoglycan assay, dermal fibroblasts): non-hydroxylated peptides; for increase in the synthesis of proteoglycans by dermal fibroblasts compared to untreated controls: hydroxylated peptides
Procedure: The human cells used were obtained from tebu-bio GmbH, Offenbach, Germany. The chondrocytes (Cat. No. 402-05a) or dermal fibroblasts (Cat. No. 106-05a) were first sown in 12-well culture plates and cultured at 37° C., 5% CO2 in Ham's F12 medium, to which 10% fetal calf serum, 20 U/ml penicillin-streptomycin and 50 μg/ml ascorbic acid were added. On every other day, the culture medium was replaced by new culture medium until the cells had reached 80% confluence. […] The Blyscan glycosaminoglycan assay (Article No. 054B3000, 2019, tebu-bio, Offenbach, Germany, or Biocolor Ltd., UK) was used to determine proteoglycans. The biosynthesis of proteoglycans was determined after stimulating dermal fibroblasts for two weeks. According to the manufacturer's instructions, after discarding the culture medium, the cell layers were covered with 1 ml of papain extraction solution and incubated for three hours at 65° C. with vigorous shaking. The cell suspensions were then centrifuged (10,000 g, 10 min) and the supernatants were collected. After adding 1 ml of Blyscan dye solution and shaking (30 min), the supernatants were centrifuged again (12,000 rpm, 10 min) and then discarded. The isolated proteoglycan pellets were resuspended in 500 μl of dissociation solution. A photometric determination of the synthesized proteoglycan in 200 μl sample solution was carried out at a wavelength of 656 nm in comparison to untreated control experiments.

[4] = tested on: human chondrocytes; test: Blyscan glycosaminoglycan assay, proteoglycan synthesis by chondrocytes; settings: 0.5 mg/ml; for increase in the synthesis of proteoglycans by chondrocytes compared to untreated controls: non-hydroxylated peptides; for increase in collagen synthesis (in the proteoglycan assay, chondrocytes): hydroxylated peptides

Substance | increase in collagen synthesis by dermal fibroblasts compared to untreated controls [1] | increase in collagen synthesis by chondrocytes compared to untreated controls [2] | increase in collagen synthesis (in the proteoglycan assay, dermal fibroblasts) [3] | increase in the synthesis of proteoglycans by chondrocytes compared to untreated controls [4] | increase in the synthesis of proteoglycans by dermal fibroblasts compared to untreated controls [3] | increase in collagen synthesis (in the proteoglycan assay, chondrocytes) [4]
GAPGKDGVRGL [SEQ ID No. 11, collagen peptide comprising 11 amino acids] | 19% | 16% | 18% | 28% | – | –
GAPGKDGVRGLTGPIGPPGPAGA [SEQ ID No. 12, collagen peptide comprising 23 amino acids] | 22% | 24% | 19% | 23% | – | –
GAPGKDGVRGLTGPIGPPGPAGAPGDKGEAGPS [SEQ ID No. 2, collagen peptide comprising 33 amino acids] | 22% | 16% | 18% | 22% | – | –
GPPGPAGEKGAPGADGPAGAPGTPGPQGIAGQRGV [SEQ ID No. 16, collagen peptide comprising 35 amino acids] | 22% | 31% | 18% | 18% | – | –
Gly-Ala-4Hyp-Gly-Lys-Asp-Gly-Val-Arg-Gly-Leu (GA[Hyp]GKDGVRGL) [SEQ ID No. 17, collagen peptide comprising 11 amino acids] | 42% | 33% | – | – | 24% | 31%
Gly-Ala-4Hyp-Gly-Lys-Asp-Gly-Val-Arg-Gly-Leu-Thr-Gly-4Hyp-Ile-Gly-4Hyp-4Hyp-Gly-4Hyp-Ala-Gly-Ala-4Hyp-Gly-Asp-Lys-Gly-Glu-Ala-Gly-4Hyp-Ser (GA[Hyp]GKDGVRGLTG[Hyp]IG[Hyp][Hyp]G[Hyp]AGA[Hyp]GDKGEAG[Hyp]S) [SEQ ID No. 25, collagen peptide comprising 33 amino acids] | 27% | 19% | – | – | 23% | –
Gly-Ala-4Hyp-Gly-Lys-Asp-Gly-Val-Arg-Gly-Leu-Thr-Gly-Pro-Ile-Gly-Pro-4Hyp-Gly-Pro-Ala-Gly-Ala (GA[Hyp]GKDGVRGLTGPIGP[Hyp]GPAGA) [SEQ ID No. 18, collagen peptide comprising 23 amino acids] | 40% | 32% | – | – | 31% | 25%
Gly-Ala-4Hyp-Gly-Lys-Asp-Gly-Val-Arg-Gly-Leu-Thr-Gly-Pro-Ile-Gly-Pro-4Hyp-Gly-Pro-Ala-Gly-Ala-4Hyp (GA[Hyp]GKDGVRGLTGPIGP[Hyp]GPAGA[Hyp]) [SEQ ID No. 8, collagen peptide comprising 24 amino acids] | 37% | 24% | – | – | 23% | 20%
Gly-Ala-4Hyp-Gly-Lys-Asp-Gly-Val-Arg-Gly-Leu-Thr-Gly-Pro-Ile-Gly-Pro-4Hyp-Gly-Pro-Ala-Gly-Ala-4Hyp-Gly-Asp-Lys-Gly-Glu-Ala-Gly-Pro-Ser (GA[Hyp]GKDGVRGLTGPIGP[Hyp]GPAGA[Hyp]GDKGEAGPS) [SEQ ID No. 7, collagen peptide comprising 33 amino acids] | 42% | 28% | – | – | 41% | 30%
Gly-Ala-4Hyp-Gly-Lys-Asp-Gly-Val-Arg-Gly-Leu-Thr-Gly-Pro-Ile-Gly-Pro-4Hyp-Gly-Pro-Ala-Gly-Ala-4Hyp-Gly-Asp-Lys-Gly-Glu-Ala-Gly-Pro-Ser-Gly-Pro-Ala-Gly-Pro-Thr-Gly-Ala-Arg-Gly-Ala-4Hyp-Gly-Asp-Arg-Gly-Glu-4Hyp-Gly-Pro-4Hyp-Gly-Pro-Ala-Gly [SEQ ID No. 19] | 40% | 37% | – | – | 29% | 18%
Gly-Ala-4Hyp-Gly-Lys-Asp-Gly-Val-Arg-Gly-Leu-Thr-Gly-Pro-Ile-Gly-Pro-4Hyp-Gly-Pro-Ala-Gly-Ala-4Hyp-Gly-Asp-Lys-Gly-Glu-Ala-Gly-Pro-Ser-Gly-Pro-Ala-Gly-Pro-Thr-Gly-Ala-Arg-Gly-Ala-4Hyp-Gly-Asp-Arg-Gly-Glu-4Hyp-Gly-Pro-4Hyp-Gly-Pro-Ala-Gly-Phe-Ala-Gly-Pro-4Hyp-Gly-Ala-Asp-Gly-Gln-4Hyp-Gly-Ala-Lys-Gly-Glu-Pro-Gly-Asp-Ala-Gly-Ala-Lys-Gly-Asp-Ala-Gly-Pro-Pro-Gly-Pro-Ala [SEQ ID No. 20] | 37% | – | – | – | 29% | 15%
Gly-Leu-4Hyp-Gly-Lys-Met-Gly-Val-Phe-Gly-Leu-Thr-Gly-Pro-Ile-Gly-Pro-4Hyp-Gly-Pro-Trp-Gly-Val-4Hyp-Gly-His-Lys-Gly-Tyr-Leu-Gly-Pro-Thr (GL[Hyp]GKMGVFGLTGPIGP[Hyp]GPWGV[Hyp]GHKGYLGPT) [SEQ ID No. 27, collagen peptide comprising 33 amino acids] | 27% | – | – | – | 26% | –
Gly-Leu-4Hyp-Gly-Lys-Tyr-Gly-Val-His-Gly-Leu-Thr-Gly-Pro-Leu-Gly-Pro-4Hyp-Gly-Pro-Met-Gly-Ile-4Hyp-Gly-Trp-Lys-Gly-Phe-Val-Gly-Pro-Thr (GL[Hyp]GKYGVHGLTGPLGP[Hyp]GPMGI[Hyp]GWKGFVGPT) [SEQ ID No. 28, collagen peptide comprising 33 amino acids] | 22% | – | – | – | 22% | –
Gly-Pro-4Hyp-Gly-Pro-Leu-Gly-Met-Lys-Gly-Leu-4Hyp-Gly-Val-Trp-Gly-Pro-Phe-Gly-Leu-4Hyp-Gly-Thr-Pro-Gly-Pro-His-Gly-Ile-Thr-Gly-Tyr-Lys-Gly-Val [SEQ ID No. 29] | 21% | – | – | – | 21% | –
Gly-Pro-4Hyp-Gly-Pro-Val-Gly-Thr-Lys-Gly-Leu-4Hyp-Gly-Phe-Tyr-Gly-Pro-Leu-Gly-Ile-4Hyp-Gly-His-Pro-Gly-Pro-Trp-Gly-Met-Leu-Gly-Thr-Lys-Gly-Val [SEQ ID No. 30] | 21% | – | – | – | 22% | –
His-His-His-His-His-His-Gly-Ala-4Hyp-Gly-Lys-Asp-Gly-Val-Arg-Gly-Leu-Thr-Gly-Pro-Ile-Gly-Pro-4Hyp-Gly-Pro-Ala-Gly-Ala-4Hyp-Gly-Asp-Lys-Gly-Glu-Ala-Gly-Pro-Ser (HHHHHHGA[Hyp]GKDGVRGLTGPIGP[Hyp]GPAGA[Hyp]GDKGEAGPS) [SEQ ID No. 26, collagen peptide comprising 39 amino acids] | 12% | 12% | – | – | 6% | –
